Consider one sequence from article PMC8829777 (Molecular Therapy. Methods & Clinical Development, 2022).

The test system of the assay is PBMCs. Kind of assay: IL-2 ELISpot of in vitro expanded PBMCs. The format is cell-based, human. As to conditions: peptides from other AAV serotypes; PBMCs from four healthy individuals; Figure S11.

Turning to FTVDNNGLY [AAV1 (6)_713-721 N718], the “IL-2 response / secretion” value is listed as “decreased IL-2 response”.
